Entries after “also recorded” stand apart in the source; their conditions may differ.

Results on 21 compounds are retold here after patent US7629332B2, “Nitrophenyl mustard and nitrophenylaziridine alcohols and their corresponding phosphates and their use as targeted cytotoxic agents” (Auckland Uniservices Limited, priority 2003, dated 2009).

Series [1] concerns WiDr human colon carcinoma xenografts (90% NTR-ve and 10% NTR+ve). Nature of the series: WiDr in vivo growth delay assay, mixed WiDr WT / WiDr NTR xenografts. The conditions noted are these: single dose at MTD (750 μmol/kg), xenografts treated at 300 mm3. The text has this:
FIG. 2a depicts in vivo activity of compound IIb-7 and its corresponding phosphate pre-prodrug, Ib-7P, against human colon carcinoma xenografts grown by inoculating mixtures of 90% NTR−ve and 10% NTR+ve Wi Dr cells;
FIG. 2b are plots of % animals survival versus time (days), in which open circles denote wild-type WiDR human colon carcinoma xenografts, and filled circles denote tumours containing WiDr cells transfected with the E. coli NTR gene;
In the WiDr in vivo growth delay assay, xenografts containing mixtures of WiDr^WT and WiDr^NTR cells are grown to 300 mm^3 and treated with a single dose of prodrug at its MTD. Tumour growth is monitored over time and animals are euthanased when mean tumour volume >1600 mm^3. Data is presented as time to death.

The test system of series [2] is SiHa human tumour xenografts. Briefly: SiHa xenograft excision / clonogenic assay, with or without 15 Gy radiation. The format is in vivo. The conditions noted are these: for Activity against hypoxic cells: 20% of respective MTDs, after radiation; for Log kill, cmpd after radiation: single i.p. dose 5 min after 15 Gy, relative to radiation only.
In series [3] the test system is Rif-1 tumour. Nature of the series: In vivo excision assay with the Rif-1 tumour (15 Gy). The protocol: FIG. 1b depicts an excision assay method: 300-500 mg Rif-1 xenograft→ 15 Gy→ Single prodrug dose @ MTD→ 18 hr→ excision→ disaggregate→ plate 10^2-10^5 cells→ 12 days→ colonies counted;
This employs an in vivo excision assay with the Rif-1 tumour, where the oxic tumour cells are sterilised using 15 Gy of radiation, and the cytotoxicity of an agent against the remaining hypoxic cells can be quantitated. […] Thus Ib-7P acts as a hypoxia-selective cytotoxin in vivo.

Series [4] is described as follows: in vivo. The conditions noted are these: mouse.
Series [5] deals with A549 (P450R+ve). Briefly: Cell proliferation (sulphorhodamine B) IC50, P450R-transfected A549 human lung cells, anoxia vs 20% O2. The format is cell-based. The note with it: for A549 (P450R+ve) 20% O2/anoxia IC50 Ratio: 4 h, sensitivity ratio for hypoxia; for IC50: A549, 4 h drug exposure under 0% oxygen.
For series [6], the system named is WiDr (NTR+ve). Nature of the series: Cell proliferation (sulphorhodamine B) IC50, NTR-transfected WiDr human colon cells. The conditions noted are these: for WiDr WT:NTR IC50 Ratio: 4 h, sensitivity ratio for NTR expression; for IC50: WiDr, 4 h drug exposure, growth 5 further days. The format is cell-based.
[7] abbreviates: 75% of MTD, single i.p. dose, no radiation, relative to vehicle controls, excision 18 h.

For `O=C(NCCOP(=O)(O)O)c1cc([N+](=O)[O-])cc([N+](=O)[O-])c1N(CCBr)CCBr` [Ib-7P, 2-[[2-[Bis(2-Bromoethyl)Amino]-3,5-Dinitrobenzoyl]Amino]Ethyl Dihydrogen Phosphate], the over-all survival in series [1] was 40%. In addition, the “time to first treatment failure” value in series [1] amounted to 77 days. For the same compound, the “Log kill, cmpd only, Mean ± sem” value in series [2] (setting [7]) is 1.20 ± 0.07. In addition, the “Activity against hypoxic cells, Rif-1 excision assay” value in series [3] (single dose at MTD after 15 Gy) is recorded as “exceed that of its parent alcohol (IIb-7); also recorded: more active against hypoxic cells than the reference hypoxic cytotoxin tirapazamine”. The “Activity against oxic tumour cells, Rif-1 excision assay” value in series [3] (single dose at MTD without radiation) was “significant”. The MTD is 750 µmol/kg in series [4] (CD-1 nude, ip) and 750 µmol/kg in series [4].

For the compound `O=P1(N(CCCl)CCCl)NCCCO1` (centres unmarked) [Cyclophosphamide, reference compound], in series [2], the “Activity against hypoxic cells” value is “lacked activity”. For the same compound, in series [4] (CD-1 nude, ip), the MTD worked out at 750 µmol/kg.

`O=C(NCCCOP(=O)(O)O)c1c([N+](=O)[O-])ccc(N(CCBr)CCBr)c1[N+](=O)[O-]` [Ic-8P, 3-({3-[Bis(2-Bromoethyl)Amino]-2,6-Dinitrobenzoyl}Amino)Propyl Dihydrogen Phosphate]: the MTD in series [4] (CD-1 nude, ip) stood at 562 µmol/kg.

Consider `N[C@@H](Cc1ccc(N(CCCl)CCCl)cc1)C(=O)O` [Melphalan, reference compound], for which the “Activity against hypoxic cells” value in series [2] was “lacked activity”. Moreover, in series [4] (CD-1 nude, ip), the MTD came out at 42.2 µmol/kg.

The IC50 is the concentration needed to halve the response being measured. Higher therefore signals a need for much substance. Broadly, the melting point is the temperature, or range, at which the solid turns liquid. On to `O=C(NCCCCCCO)c1cc([N+](=O)[O-])cc([N+](=O)[O-])c1N1CC1` [IIb-1, 2-(Aziridin-1-yl)-N-(6-Hydroxyhexyl)-3,5-Dinitrobenzamide], for which the melting point was 189 to 192 °C. Further, in series [5], the “A549 (P450R+ve) 20% O2/anoxia IC50 Ratio” value is listed as under 1.3 and the IC50 is 384 µM. Further, in series [6], the “WiDr WT:NTR IC50 Ratio” value is 2 and half-maximal inhibition (IC50) required 61 µM.

With `O=C(NCCOP(=O)(O)O)c1cc([N+](=O)[O-])cc([N+](=O)[O-])c1N(CCI)CCI` [Ib-14P, 2-[[2-[Bis(2-Iodoethyl)Amino]-3,5-Dinitrobenzoyl]Amino]Ethyl Dihydrogen Phosphate], the “Log kill, cmpd only, Mean ± sem” value in series [2] (setting [7]) is given as 0.92 ± 0.06. In series [4] (CD-1 nude, ip), this compound showed an MTD of 562 µmol/kg.

`O=C(NCCO)c1cc([N+](=O)[O-])cc([N+](=O)[O-])c1N(CCBr)CCBr` [IIb-7, 2-[Bis(2-Bromoethyl)Amino]-N-(2-Hydroxyethyl)-3,5-Dinitrobenzamide]: in series [1], the over-all survival is given as 6% and the “time to first treatment failure” value stood at 17 days. In series [5], the “A549 (P450R+ve) 20% O2/anoxia IC50 Ratio” value turned out to be 56 and the IC50 was found to be 0.8 µM. The compound also displayed an MTD in series [4] of 1000 µmol/kg. Also, in series [6], the “WiDr WT:NTR IC50 Ratio” value is listed as 61 and 0.3 µM corresponded to half-maximal inhibition (IC50).

For `O=C(NCCCO)c1cc([N+](=O)[O-])cc([N+](=O)[O-])c1N(CCCl)CCCl` [IIb-3, 2-[Bis(2-Chloroethyl)Amino]-N-(3-Hydroxypropyl)-3,5-Dinitrobenzamide], the melting point was in the range of 89 to 91 °C. Besides, in series [5], the “A549 (P450R+ve) 20% O2/anoxia IC50 Ratio” value amounted to 9 and the half-inhibitory concentration (IC50) was 30 µM. In series [6], the “WiDr WT:NTR IC50 Ratio” value turned out to be 59 and the IC50 is 13.6 µM.

With `O=C(NCCO)c1cc([N+](=O)[O-])cc([N+](=O)[O-])c1N(CCI)CCI` [IIb-14, 2-[Bis(2-Iodoethyl)Amino]-N-(2-Hydroxyethyl)-3,5-Dinitrobenzamide], the melting point is 129 to 131 °C. In addition, in series [5], the “A549 (P450R+ve) 20% O2/anoxia IC50 Ratio” value stood at 27 and it took 1 µM to reach half-maximal inhibition (IC50). In addition, in series [6], the “WiDr WT:NTR IC50 Ratio” value is on record as 12 and the IC50 amounted to 0.8 µM.

In turn, `CC(Br)CN(CC(C)Br)c1c(C(=O)NCCOP(=O)(O)O)cc([N+](=O)[O-])cc1[N+](=O)[O-]` (centres unmarked) came in with a melting point of 157 to 161 °C.

With `O=C(NCCCO)c1cc([N+](=O)[O-])cc([N+](=O)[O-])c1N(CCBr)CCBr` [IIb-8, 2-[Bis(2-Bromoethyl)Amino]-N-(3-Hydroxypropyl)-3,5-Dinitrobenzamide], the melting point is 89 to 94 °C. Moreover, in series [5], the “A549 (P450R+ve) 20% O2/anoxia IC50 Ratio” value is given as 24 and the IC50 stood at 1.1 µM. In series [6], the “WiDr WT:NTR IC50 Ratio” value was found to be 13 and it took 0.4 µM to reach half-maximal inhibition (IC50).

Turning to `O=C(NCCOP(=O)(O)O)c1cc([N+](=O)[O-])cc([N+](=O)[O-])c1N(CCCl)CCCl` [Ib-2P, 2-[[2-[Bis(2-Chloroethyl)Amino]-3,5-Dinitrobenzoyl]Amino]Ethyl Dihydrogen Phosphate], in series [4] (CD-1 nude, ip), the MTD is 237 µmol/kg.

For `O=C(O)CCCc1ccc(N(CCCl)CCCl)cc1` [Chlorambucil, reference compound], in series [2], the “Activity against hypoxic cells” value is on record as “lacked activity”. The “Log kill, cmpd only, Mean ± sem” value in series [2] (setting [7]) is given as 0.11 ± 0.04. The MTD in series [4] (CD-1 nude, ip) was 237 µmol/kg.

Compound `CS(=O)(=O)c1cc([N+](=O)[O-])c(C(=O)NCCO)cc1N(CCBr)CCBr` [IIa-7s, 5-[Bis(2-Bromoethyl)Amino]-N-(2-hydroxyethyl)-4-(Methylsulfonyl)-2-Nitrobenzamide] gave a melting point of 126 to 127 °C. In series [5], the “A549 (P450R+ve) 20% O2/anoxia IC50 Ratio” value is on record as 109 and the IC50 came to 2.1 µM. Further, in series [6], the “WiDr WT:NTR IC50 Ratio” value stood at 35 and half-maximal inhibition (IC50) was put at 9.3 µM.

`CC(Br)CN(CC(C)Br)c1c(C(=O)NCCO)cc([N+](=O)[O-])cc1[N+](=O)[O-]` (centres unmarked) [IIb-7a, 2-[Bis(2-Bromopropyl)Amino]-N-(2-Hydroxyethyl)-3,5-Dinitrobenzamide] displayed a melting point of 127 to 130 °C. Also, in series [5], the “A549 (P450R+ve) 20% O2/anoxia IC50 Ratio” value is reported as 5.3 and the IC50 was 1 µM. Moreover, in series [6], the “WiDr WT:NTR IC50 Ratio” value amounted to 27 and 0.5 µM corresponded to half-maximal inhibition (IC50).

In the case of `Nc1n[n+]([O-])c2ccccc2[n+]1[O-]` [Tirapazamine, reference compound], in series [2], the “Activity against hypoxic cells” value is reported as “lacked activity”. The “Log kill, cmpd only, Mean ± sem” value in series [2] (in vivo, ip) is given as −0.02 ± 0.01. Besides, the MTD in series [4] (CD-1 nude, ip) came to 316 µmol/kg.

For the compound `O=C(NCCO)c1cc([N+](=O)[O-])cc([N+](=O)[O-])c1N(CCCl)CCCl` [IIb-2, 2-[Bis(2-Chloroethyl)Amino]-N-(2-Hydroxyethyl)-3,5-Dinitrobenzamide], the melting point lay within 109 to 111 °C. In series [5], the “A549 (P450R+ve) 20% O2/anoxia IC50 Ratio” value was 20 and the IC50 is 18 µM. In addition, in series [6], the “WiDr WT:NTR IC50 Ratio” value is 47 and inhibition was half-maximal at 11.8 µM (IC50).

Regarding `O=C(NCCCCO)c1cc(N(CCBr)CCBr)c([N+](=O)[O-])cc1[N+](=O)[O-]` [IIa-9, N-(4-Hydroxybutyl)-5-[Bis(2-Bromoethyl)Amino]-2,4-Dinitrobenzamide], the melting point fell in the range of 123 to 124 °C. Besides, in series [5], the “A549 (P450R+ve) 20% O2/anoxia IC50 Ratio” value stood at 9.4 and the IC50 came to 22 µM. For the same compound, in series [6], the “WiDr WT:NTR IC50 Ratio” value stood at 58 and the midpoint of inhibition, the IC50, lay at 6.4 µM.

Turning to `O=C(NCCCOP(=O)(O)O)c1cc(N(CCCl)CCCl)c([N+](=O)[O-])cc1[N+](=O)[O-]`, the melting point lay within 195 to 200 °C.

Regarding `O=C(NCCCOP(=O)(O)O)c1cc(N(CCBr)CCBr)c([N+](=O)[O-])cc1[N+](=O)[O-]` [Ia-8P, 3-[[5-[Bis(2-Bromoethyl)Amino]-2,4-Dinitrobenzoyl]Amino]Propyl Dihydrogen Phosphate], the MTD in series [4] (CD-1 nude, ip) amounted to 1000 µmol/kg.

As to “2-[(2-Iodoethyl)-2,4-Dinitro-6-({[2-(Phosphonooxy)Ethyl]Amino}Carbonyl)-Anilino]Ethyl Methanesulfonate [Ib-15P]”, the “Log kill, cmpd after radiation” value in series [2] (20% of MTD) was 1.74 ± 0.23; in series [2] (75% of MTD), “≧3.27 ± 0.13”. Besides, the “Log kill, cmpd only, Mean ± sem” value in series [2] (setting [7]) came to 2.24 ± 0.15.
